Data reported in ChEMBL document CHEMBL5113375, “Development of Mcl-1 inhibitors for cancer therapy” (Eur J Med Chem, 2021).
Each block holds one molecule with its values, some of them ahead of it.

Legend:
[1] = target: T1, Induced myeloid leukemia cell differentiation protein Mcl-1/Bcl-2-like protein 11 (Homo sapiens, UniProt Q07820); experiment: Inhibition of Mcl-1/Bim (unknown origin) by ELISA method; format: protein assay
[2] = target: T2, Bcl-xL/Bcl-2-like protein 11 (Homo sapiens, UniProt Q07817); experiment: Inhibition of Bcl-xL/Bim (unknown origin) by ELISA method; format: protein assay
T2 sequence (Q07817 whole entry): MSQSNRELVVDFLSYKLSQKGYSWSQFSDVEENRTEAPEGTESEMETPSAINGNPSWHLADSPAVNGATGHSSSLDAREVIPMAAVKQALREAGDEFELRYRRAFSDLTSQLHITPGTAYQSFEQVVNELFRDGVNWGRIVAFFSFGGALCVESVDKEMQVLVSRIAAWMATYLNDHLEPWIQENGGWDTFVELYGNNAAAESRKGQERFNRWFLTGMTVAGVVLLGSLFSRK
T2 sequence (O43521 whole entry, further chain): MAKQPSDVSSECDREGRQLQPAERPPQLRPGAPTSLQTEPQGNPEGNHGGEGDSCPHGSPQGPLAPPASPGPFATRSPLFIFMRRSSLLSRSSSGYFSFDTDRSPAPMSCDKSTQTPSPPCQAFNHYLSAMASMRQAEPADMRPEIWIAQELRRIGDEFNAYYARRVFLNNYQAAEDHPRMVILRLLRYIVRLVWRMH

[3] = Cytotoxicity against human MOLP8 cells by caspase-3/7 activation; format: functional, cell-based; conditions: MOLP-8
BCL2/BCL2L11 = BCL2/BCL2L11 (Homo sapiens, UniProt P10415); experiment: Inhibition of Bcl-2/Bim (unknown origin) by ELISA method; format: protein assay
Chain of BCL2/BCL2L11 (P10415 whole entry): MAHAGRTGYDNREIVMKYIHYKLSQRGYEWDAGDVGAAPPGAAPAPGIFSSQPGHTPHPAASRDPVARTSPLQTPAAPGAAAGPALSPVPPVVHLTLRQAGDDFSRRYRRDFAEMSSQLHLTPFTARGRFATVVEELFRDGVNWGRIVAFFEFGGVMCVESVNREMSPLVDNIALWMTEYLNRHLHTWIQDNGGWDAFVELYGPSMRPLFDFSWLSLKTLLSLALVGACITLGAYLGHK
Chain of BCL2/BCL2L11 (O43521 whole entry, further chain): as the sequence (O43521 whole entry, further chain) above

K562 = experiment: Cytotoxicity against human K562 cells; format: functional, cell-based
HeLa = experiment: Cytotoxicity against human HeLa cells; format: functional, cell-based
[4] = target: T3, Induced myeloid leukemia cell differentiation protein Mcl-1 (Homo sapiens, UniProt Q07820); experiment: Binding affinity to wildtype Mcl-1 (unknown origin) assessed as dissociation constant by SPR analysis
T3 sequence (Q07820 whole entry): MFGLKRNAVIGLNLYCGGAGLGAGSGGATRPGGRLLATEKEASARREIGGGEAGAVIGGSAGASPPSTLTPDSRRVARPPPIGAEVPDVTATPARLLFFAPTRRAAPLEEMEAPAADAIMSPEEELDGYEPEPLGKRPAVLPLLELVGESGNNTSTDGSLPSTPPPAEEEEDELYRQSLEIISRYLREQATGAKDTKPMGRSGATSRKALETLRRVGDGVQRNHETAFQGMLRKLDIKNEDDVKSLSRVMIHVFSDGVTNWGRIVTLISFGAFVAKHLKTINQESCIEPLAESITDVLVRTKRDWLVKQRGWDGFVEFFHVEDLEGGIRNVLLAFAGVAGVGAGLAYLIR

[5] = Binding affinity to Mcl-1 H224A (unknown origin) assessed as dissociation constant by SPR analysis; parameters: species or system Homo sapiens
[6] = target: T4, Induced myeloid leukemia cell differentiation protein Mcl-1/BH3-interacting domain death agonist (Homo sapiens, UniProt Q07820); experiment: Binding affinity to Mcl-1/Bid (unknown origin) assessed as inhibition constant by fluorescence polarization assay; format: protein assay
T4 sequence (Q07820 whole entry, the tested form may be a part): as the sequence (Q07820 whole entry) above
T4 sequence (P55957 whole entry, further chain, the tested form may be a part): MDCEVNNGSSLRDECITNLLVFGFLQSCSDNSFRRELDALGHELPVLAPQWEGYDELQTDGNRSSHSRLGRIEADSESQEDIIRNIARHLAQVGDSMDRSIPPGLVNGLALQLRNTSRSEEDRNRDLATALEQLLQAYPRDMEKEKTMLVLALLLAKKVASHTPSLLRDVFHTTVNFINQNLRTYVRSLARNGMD

BCL2/BID [7] = target: T5, BCL2/BID (Homo sapiens, UniProt P10415); experiment: Binding affinity to Bcl-2 /Bid (unknown origin) assessed as inhibition constant by fluorescence polarization assay; format: protein assay
T5 sequence (P10415 whole entry): as the sequence (P10415 whole entry) above
T5 sequence (P55957 whole entry, further chain): as the sequence (P55957 whole entry, further chain, the tested form may be a part) above

[8] = target: T2, Bcl-xL/Bcl-2-like protein 11; experiment: Binding affinity to Bcl-xL/Bim (unknown origin) assessed as inhibition constant by fluorescence polarization assay; format: protein assay
Bcl-xL/BAK [9] = target: T6, Bcl-xL/BAK (Homo sapiens, UniProt Q07817); experiment: Binding affinity to Bcl-xL/Bak (unknown origin) assessed as dissociation constant by ITC method; format: protein assay
T6 sequence (Q07817 whole entry, one chain of several): as the sequence (Q07817 whole entry) above

MCL1-BAK1 complex [10] = target: T7, MCL1-BAK1 complex (Homo sapiens, UniProt Q07820); experiment: Binding affinity to Mcl-1/Bak (unknown origin) assessed as inhibition constant by fluorescence polarization assay; format: protein-complex assay
T7 sequence (Q07820 whole entry, one chain of several, the tested form may be a part): as the sequence (Q07820 whole entry) above

[11] = Inhibition of Mcl-1 (172 - 327 residues)/Noxa (unknown origin) by fluorescence polarization assay; parameters: species or system Homo sapiens
MCL1-BAK1 complex [12] = target: T7, MCL1-BAK1 complex; experiment: Inhibition of Mcl-1/Bak (unknown origin) by fluorescence polarization assay; format: protein-complex assay
Bcl-xL/BAK [13] = target: T6, Bcl-xL/BAK; experiment: Inhibition of Bcl-xL/Bak (unknown origin) by fluorescence polarization assay; format: protein assay
[14] = target: T4, Induced myeloid leukemia cell differentiation protein Mcl-1/BH3-interacting domain death agonist; experiment: Binding affinity to Mcl-1/Bid (unknown origin) by fluorescence polarization assay; format: protein assay
BCL2/BID [15] = target: T5, BCL2/BID; experiment: Binding affinity to Bcl-2/Bid (unknown origin) by fluorescence polarization assay; format: protein assay
[16] = target: T8, Bcl-xL/BH3-interacting domain death agonist (Homo sapiens, UniProt Q07817); experiment: Binding affinity to Bcl-xL/Bid (unknown origin) by fluorescence polarization assay; format: protein assay
T8 sequence (Q07817 whole entry, the tested form may be a part): as the sequence (Q07817 whole entry) above
T8 sequence (P55957 whole entry, further chain, the tested form may be a part): as the sequence (P55957 whole entry, further chain, the tested form may be a part) above

[17] = target: T8, Bcl-xL/BH3-interacting domain death agonist; experiment: Inhibition of Bcl-xL/Bid complex (unknown origin); format: protein assay
[18] = target: T3, Induced myeloid leukemia cell differentiation protein Mcl-1; experiment: Binding affinity to Mcl-1 (unknown origin) assessed as inhibition constant by fluorescence polarization assay
[19] = target: T2, Bcl-xL/Bcl-2-like protein 11; experiment: Inhibition of GST-tagged Bcl-xL/Bim (unknown origin) incubated for 15 mins followed by Bim addition measured after 2 hrs by ELISA method; format: protein assay
[20] = target: T1, Induced myeloid leukemia cell differentiation protein Mcl-1/Bcl-2-like protein 11; experiment: Inhibition of GST-tagged Mcl-1/Bim (unknown origin) incubated for 15 mins followed by Bim addition measured after 2 hrs by ELISA method; format: protein assay
[21] = target: Apoptosis regulator Bcl-2/Bcl-2 homologous antagonist/killer (Homo sapiens, UniProt P10415+Q16611); experiment: Inhibition of Bcl-2/Bak (unknown origin); format: protein assay
Chain of Apoptosis regulator Bcl-2/Bcl-2 homologous antagonist/killer (P10415 whole entry, one chain of several): as the sequence (P10415 whole entry) above

BCL2A1/BAK1 = target: T9, BCL2A1/BAK1 (Homo sapiens, UniProt Q16548+Q16611); experiment: Inhibition of Bfl-1/Bak (unknown origin); format: protein assay
T9 sequence (Q16611 whole entry): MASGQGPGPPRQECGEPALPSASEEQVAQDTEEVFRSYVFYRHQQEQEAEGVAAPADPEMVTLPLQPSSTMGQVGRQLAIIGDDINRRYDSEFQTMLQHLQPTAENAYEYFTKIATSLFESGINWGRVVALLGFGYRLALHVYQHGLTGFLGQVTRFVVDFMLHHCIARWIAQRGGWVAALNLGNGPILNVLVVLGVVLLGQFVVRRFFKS
T9 sequence (Q16548 whole entry): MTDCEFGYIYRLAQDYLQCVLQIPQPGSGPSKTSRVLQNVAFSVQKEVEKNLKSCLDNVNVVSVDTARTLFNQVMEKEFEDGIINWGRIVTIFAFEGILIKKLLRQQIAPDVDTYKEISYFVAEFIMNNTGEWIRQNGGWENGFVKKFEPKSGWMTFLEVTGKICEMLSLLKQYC

T1 sequence (Q07820 whole entry): as the sequence (Q07820 whole entry) above
T1 sequence (O43521 whole entry, further chain): as the sequence (O43521 whole entry, further chain) above

IC50 (BCL2/BCL2L11): 430 nM
IC50 [1]: 150 nM
Kd [4]: 150 nM
Kd [5]: 130 nM
Compound: O=C1CCC(N2C(=O)c3cccc4c(Sc5ccc(Br)cc5)ccc(c34)C2=O)C(=O)N1 (configuration not stated)
IC50 (K562): 7300 nM
IC50 (HeLa): 10400 nM

Ki (BCL2/BID [7]): 1100 nM
Ki [8]: 830 nM
Compound: O=C(Nc1ccccc1)C1=CN=c2s/c(=C\c3cn(Cc4ccccc4)c4ccccc34)c(=O)n2[C@@H]1c1ccccc1
Ki [6]: 360 nM

Kd (Bcl-xL/BAK [9]): 3400 nM
Ki (MCL1-BAK1 complex [10]): 6900 nM
Compound: COc1cccc(-c2ccc(/C=C3\SC(=S)N([C@@H](Cc4ccccc4)C(=O)O)C3=O)cn2)c1OC

IC50 [11]: 60 nM
Compound: Cc1ccc(-c2ccc(C(=O)O)c(NS(=O)(=O)c3ccc(OCCCN4CCOCC4)cc3)c2)c2ccccc12

IC50 (MCL1-BAK1 complex [12]): 110000 nM
IC50 (Bcl-xL/BAK [13]): 91000 nM
Kd (Bcl-xL/BAK [9]): 8700 nM
Ki (MCL1-BAK1 complex [10]): 44000 nM
Compound: CC(C)C(C(=O)O)N1C(=O)/C(=C/c2ccc(Br)cc2)SC1=S (configuration not stated)

IC50 (BCL2/BCL2L11): 9460 nM
IC50 [1]: 510 nM
Kd [4]: 150 nM
Kd [5]: 1130 nM
Compound: O=C(COc1ccc2ccccc2c1)NCCN1C(=O)c2cccc3c(Sc4ccc(Br)cc4)ccc(c23)C1=O
IC50 (K562): 10100 nM
IC50 (HeLa): 43200 nM

IC50 [11]: 500 nM
Compound: Cc1ccc(-c2ccc(C(=O)O)c(NS(=O)(=O)c3ccc(Oc4ccccc4)cc3)c2)c2ccccc12

IC50 [11]: 400 nM
Compound: Cc1ccc(-c2ccc(C(=O)O)c(NS(=O)(=O)c3ccccc3)c2)c2ccccc12

IC50 [11]: 30 nM
Compound: Cc1ccc(-c2ccc(C(=O)O)c(NS(=O)(=O)c3ccc(OCCn4cccn4)cc3)c2)c2ccccc12

Ki (BCL2/BID [7]): 940 nM
Ki [8]: 280 nM
Compound: COC(=O)C1=CN=c2s/c(=C\c3cn(Cc4ccccc4)c4ccccc34)c(=O)n2[C@H]1c1ccc(C(C)=O)cc1
Ki [6]: 320 nM

Kd [4]: 430 nM
Kd [5]: 410 nM
Compound: N#CC1=C(C#N)c2ccc(Sc3ccc(Br)cc3)c3cccc(c23)C1=O

Ki (BCL2/BID [7]): 310 nM
Compound: N#CC1=C(C#N)c2ccc(N3CCSCC3)c3cccc(c23)C1=O
Ki [6]: 58 nM

Ki (BCL2/BID [7]): 540 nM
Ki [8]: 290 nM
Compound: CCOC(=O)C1=CN=c2s/c(=C\c3cn(Cc4ccccc4)c4ccccc34)c(=O)n2[C@@H]1c1cccc(C(C)=O)c1
Ki [6]: 290 nM

The remaining lines, values behind:

Compound: O=C1c2ccc(OS(=O)(=O)C(F)(F)F)cc2Oc2c(Cl)c(Cl)c(C(=O)c3ccc(OS(=O)(=O)C(F)(F)F)cc3O)n2-c2c1[nH]c(Cl)c2Cl
IC50 [1]: 1400 nM
IC50 [2]: 2300 nM

Compound: CC(=O)c1cc(OCc2nn(C)c(C)c2-c2cccc3c(CCCOc4cccc5ccccc45)c(C(=O)O)[nH]c23)ccc1B(O)O
IC50 [3]: 170 nM

Compound: O=C(Cn1nnc(-c2ccccc2Oc2ccc(Cl)cc2Cl)n1)NNC(=S)Nc1ccc([N+](=O)[O-])cc1
Ki [14]: 2200 nM
Ki (BCL2/BID [15]): 1900 nM
Ki [16]: 3500 nM

Compound: Cc1cs/c(=N\C2CCCCC2)n1/N=C/c1ccc(O)c(O)c1O
IC50 [17]: > 50000 nM

Compound: CCOC(=O)C1=C(C)N=c2s/c(=C\c3cn(Cc4ccc(-c5ccccc5)cc4)c4ccccc34)c(=O)n2C1c1ccccc1 (configuration not stated)
Ki [18]: 200 nM

Compound: O=C(c1ccc(SCc2ccccc2)cc1O)c1[nH]c(Cl)c(Cl)c1-n1cc(Cl)c(Cl)c1C(=O)c1ccc(SCc2ccccc2)cc1O
IC50 [19]: 600 nM
IC50 [20]: 700 nM

Compound: C[n+]1cc2cc3c(cc2c2ccc4cc5c(cc4c21)OCO5)OCO3
IC50 (MCL1-BAK1 complex [12]): 44000 nM
IC50 (Bcl-xL/BAK [13]): 19000 nM

Compound: O=C(NCCNS(=O)(=O)c1sccc1-c1ccccc1Oc1ccc(O)c(O)c1)Nc1cc(C(F)(F)F)cc(C(F)(F)F)c1
Ki [14]: 330 nM
Ki (BCL2/BID [15]): 1200 nM
Ki [18]: 298 nM

Compound: Cc1cc2c(C(=O)NC(C)c3ccc(Cl)cc3)c(O)c(O)cc2c(O)c1-c1c(C)cc2c(C(=O)NC(C)c3ccc(Cl)cc3)c(O)c(O)cc2c1O (configuration not stated)
IC50 [21]: 490 nM
IC50 (BCL2A1/BAK1): 400 nM
